This passage reports Ki results from patent publication US20050234066A1, “Alpha substituted carboxylic acids” (Agouron Pharmaceuticals, Inc., priority 2004, published 2005).

For one assay, the target named is T1, PPAR-α (Homo sapiens, UniProt Q07869).
T1 sequence (Q07869 1-468): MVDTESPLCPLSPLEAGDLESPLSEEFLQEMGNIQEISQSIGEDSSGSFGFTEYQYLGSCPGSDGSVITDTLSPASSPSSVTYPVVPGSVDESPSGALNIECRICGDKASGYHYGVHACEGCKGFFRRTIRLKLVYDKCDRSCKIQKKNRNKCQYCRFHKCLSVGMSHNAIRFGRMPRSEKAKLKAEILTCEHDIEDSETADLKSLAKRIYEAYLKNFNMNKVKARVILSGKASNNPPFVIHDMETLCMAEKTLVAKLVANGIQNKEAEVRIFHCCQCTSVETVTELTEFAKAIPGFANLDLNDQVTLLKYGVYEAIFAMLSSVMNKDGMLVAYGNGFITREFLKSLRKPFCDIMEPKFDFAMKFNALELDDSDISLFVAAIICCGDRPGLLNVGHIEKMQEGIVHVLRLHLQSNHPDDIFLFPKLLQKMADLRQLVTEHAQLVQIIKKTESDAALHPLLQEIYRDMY
The assay can be described thus: Scintillation Proximity Assay (SPA), displacement of 3H labeled GW2331. Conditions: 3H GW2331 displacement, read-out: PPAR-alpha Ki. In kind it is binding.
From the text: (§1) Scintillatian Proximity Assay (SPA) Assays
(§2) In the SPA assay, 3H labeled darglitazone (for PPAR-γ) or GW2331 (for PPAR-α) is bound to the PPAR protein captured on SPA polylysine beads and generates radioactive count signal that can be detected by TopCounts (Packard). The PPAR-bound 3H labeled ligand can be displaced by an unlabeled compound. The Ki of the compound can be then determined by the extent of displacement at various compound concentrations. Reagents: • SPA polylysine beads, which can be purchased from Amersham Bioscience. • H labeled Darglitazone for PPAR-γ. • H labeled GW2331 for PPAR-α. • PPAR proteins. • Buffer—PBS, 10% glycerol, 14 mM beta-mercaptoethanol.
What is called Ki is a dissociation constant, usually derived from enzyme kinetics or from competition with a known ligand. Turning to `COC(C)(Cc1ccc(OCCN(C)c2nc3ccccc3o2)nc1)C(=O)O` [Example D-34], the Ki was determined as 3.2 µM.

On to `COC(C)(Cc1ccc(OCCc2nc(-c3cccc(C)c3)oc2C)nc1)C(=O)O` [Example D-36], for which the Ki amounted to 0.73 µM.

As to `CCOc1ccc(-c2nc(CCOc3ccc(CC(C)(OC)C(=O)O)cn3)c(C)o2)cc1` [Example D-37], the Ki was found to be 4.7 µM.

Consider `COC(C)(Cc1ccc(OCCc2ccc(Oc3ccccc3)cc2)nc1)C(=O)O` [Example D-40], for which the inhibition constant (Ki) is 1.8 µM.

As for `COC(C)(Cc1ccc(OCCc2nc(-c3cccc(F)c3)oc2C)nc1)C(=O)O` [Example D-42], the inhibition constant (Ki) worked out at 1 µM.

The target of a further assay is T2, PPAR-γ (Homo sapiens, UniProt P37231).
T2 sequence (P37231 1-505): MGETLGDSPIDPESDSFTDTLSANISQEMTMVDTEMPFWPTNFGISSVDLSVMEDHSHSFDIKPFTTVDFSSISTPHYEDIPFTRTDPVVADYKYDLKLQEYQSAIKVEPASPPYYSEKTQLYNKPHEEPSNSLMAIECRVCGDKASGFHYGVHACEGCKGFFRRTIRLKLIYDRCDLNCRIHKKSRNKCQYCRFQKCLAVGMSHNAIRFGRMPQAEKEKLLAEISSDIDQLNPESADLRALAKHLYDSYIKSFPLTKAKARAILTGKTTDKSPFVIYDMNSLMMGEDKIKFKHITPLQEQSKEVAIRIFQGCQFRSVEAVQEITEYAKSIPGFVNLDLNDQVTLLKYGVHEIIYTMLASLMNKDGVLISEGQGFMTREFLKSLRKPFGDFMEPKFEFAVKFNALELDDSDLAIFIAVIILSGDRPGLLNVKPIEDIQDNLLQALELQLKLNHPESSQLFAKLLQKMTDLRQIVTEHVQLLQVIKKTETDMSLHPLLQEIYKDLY
The experiment in a line: Scintillation Proximity Assay (SPA), displacement of 3H labeled darglitazone. Format: binding. Conditions: 3H darglitazone displacement, read-out: PPAR-gamma Ki. Background: Scintillation proximity formats need no separation of bound from free tracer.
From the text: as §1, §2
With `COC(C)(Cc1ccc(OCCN(C)c2nc3ccccc3o2)nc1)C(=O)O` [Example D-34], the inhibitory constant (Ki) is 9.1 µM.

Take `COC(C)(Cc1ccc(OCCc2nc(-c3cccc(C)c3)oc2C)nc1)C(=O)O` [Example D-36]: the Ki was 0.23 µM.

As for `CCOc1ccc(-c2nc(CCOc3ccc(CC(C)(OC)C(=O)O)cn3)c(C)o2)cc1` [Example D-37], the Ki was determined as 0.53 µM.

In the case of `COC(C)(Cc1ccc(OCCc2ccc(Oc3ccccc3)cc2)nc1)C(=O)O` [Example D-40], the inhibitory constant (Ki) came to 9.6 µM.

In the case of `COC(C)(Cc1ccc(OCCc2nc(-c3cccc(F)c3)oc2C)nc1)C(=O)O` [Example D-42], the inhibition constant (Ki) worked out at 0.7 µM.
